The values below come from US12612525B2, “Amine compound, reactive coalescing agent, coating composition, coating layer and related methods” (Agency for Science, Technology and Research, priority 2020, dated 2026).

Where two headings read alike, the source gives them in different places.

Data set [1] can be described thus: Boiling point determination of ACAs. The format is physicochemical. How it is done: Amine based reactive coalescing agents were synthesized via an atom efficient aza-Michael addition reaction of secondary amine to different acrylate/acrylamide monomers such as 2-hydroxyethyl acrylate, 2-hydroxypropyl acrylate, 2-ethylhexyl acrylate, ^nbutyl acrylate, and N-hydroxyethyl acrylamide etc (Table 1 and Scheme 2). The reactions were carried out neat or in water (in some cases, in the presence of 10% ceric ammonium nitrate (CAN) catalyst) at room temperature (RT)-80° C. to yield 80% to 95% conversion. Finally, the ACAs were purified by column chromatography and characterized by ^1H-NMR and ^13C-NMR spectroscopy, and elemental microanalysis (as will be shown in Examples 3.1 to 3.5). Other characterizations include determination of boiling point, volatility (% wt loss when heated at 110±5° C. for 1 hour as per USA EPA 24 method), and plasticizing effect, i.e. reduction of minimum film formation temperature (MFFT) of commercial latices.
Characterization studies were performed on the ACA examples to determine their boiling points and volatility (% wt loss when heated at 110±5° C. for 1 hour as per USA EPA 24 method).

Data set [2] can be described thus: Accelerated release study: coalescing agent blended with latex IRS-129, film heated at 110° C., 1H NMR. Conditions: 2 wt % in IRS-129 latex, dried 2 days at room temperature, powder heated at 110° C. in convection oven. How it is done: At first, ACA4 (2 wt % with respect to latex) was first blended with IRS-129 latex (containing —COOH groups) using dispermat (LC75-E) and the mixture was allowed to dry at room temperature for 2 days. Then, the polymer film was grounded to make powder and then heated at 110° C. in a convection oven, i.e. accelerated evaporation (as illustrated in FIG. 6). Accelerated evaporation was used in this study instead as natural release is time consuming and gas analysis is difficult.
Samples were collected time to time, dissolved in NMR solvent and analyzed by ^1H NMR spectroscopy (with 25 mg of sample, 0.8 mL of CDCl3, and 25 μL of DMF/CDCl3 as internal standard). High boiling commercial coalescing agent, 1-Phenoxy-2-propanol (PPH) (b.p. 243° C.) was used as control.

For data set [3] the following is noted: commercial coalescing agent used as control; cited from earlier work.
The nature of data set [4]: Stabilization of polymer on heating. Conditions: IRS-129 heated at 100° C. for 4 days.
The nature of data set [5]: Water solubility of ACAs (Table 1). Conditions: in water. In kind it is physicochemical.

Consider `CCOCCOCCOC(=O)CCN(Cc1ccccc1)Cc1ccccc1` [ACA16], for which the b.p. in data set [1] was 348-355 °C.
With `CC(O)COc1ccccc1` (centres unmarked) [PPH, 1-Phenoxy-2-propanol, reference compound], in data set [2], the “Presence of coalescing agent in polymer film after heating (1H NMR)” value is “completely evaporated out from the polymer after 2 days of heating”. Also, in data set [3], the b.p. was 243 °C.
`O=C(CCN(Cc1ccccc1)Cc1ccccc1)OCCO` [ACA4]: the “Stabilisation of latex polymer against oxidation/coloration” value in data set [4] is “helps to stabilise or reduce oxidation/coloration of the polymer”. For the same compound, the “Presence of coalescing agent in polymer film after heating (1H NMR)” value in data set [2] is reported as “remain present even after 4 days of heating”. For the same compound, in data set [1], the b.p. is 292-297 °C. The “Water Solubility” value in data set [5] is given as <0.06%.
Consider `C=C(C)C(=O)OCCOC(=O)CCN(Cc1ccccc1)Cc1ccccc1` [ACA15], for which the b.p. in data set [1] is 251-254 °C.
